The source of these data is article PMC8584989 (International Journal of Molecular Sciences, 2021).

The target of data set [1] is T1, ABCC1 (Homo sapiens, UniProt P33527). Briefly: Inhibitory accumulation assay in MDCKII-ABCC1 cells. The class given is cell-based. On the procedure:
Accumulation assays were performed as described previously. […] The daunorubicin and mitoxantrone accumulation assays were performed in above mentioned cell lines and were also adopted to primary NSCLC cultures. […] Cells were incubated up to 70-80% confluence for approximately 24 h. […] The cells there trypsinized on ice, resuspended with 2% FBS in cold PBS solution and then fluorescence was detected using flow cytometer (BD FACSCanto II, Allschwil, Switzerland). […] For data presentation, the ratios of relative fluorescence units (RFUs) from treated samples to RFUs from vehicle-treated (control) cells were computed generating “relative substrate accumulation”.

Another data set concerns A431-par cells. Briefly: MTT proliferation / drug combination assay. The class given is cell-based. The note with it: 48 h, read-out: A431-par IC50. As to the method: (§1) These colorimetric assays were used in various studies presented in this paper (prior induction studies, MDR reversal experiments and comparative viability assays) and were performed as reported previously. […] In MTT experiments, cells were seeded on a 96-well culture plate at densities (in number of cells/well) of 1.3 × 10^4 for MDCKII-par, MDCKII-ABCB1 and MDCKII-ABCG2; 1.2 × 10^4 for A431-par, A431-ABCB1, A431-ABCG2 and A431-ABCC1; 1.2 × 10^4 for NCI-H1299; 1.0 × 10^4 for A459; 2.0 × 10^4 for Caco-2; 5.0 × 10^4 for LS174T; and 1.0 × 10^4 for primary NSCLC explants. On the other hand, for XTT cells were seeded with densities 2.0 × 10^4 for HL60-par, HL60-ABCB1, HL60-ABCG2 and HL60-ABCC1 cells/well on 96-well plates. […] Following 48 h incubation with drugs, Opti-MEM solutions of MTT or XTT (1 mg/mL) with phenazine methosulfate solution (7.50 μg/mL; only for XTT) was added and the cells were incubated for 1 h with the exception of HL60s that were incubated for 5 h.
(§2) Based on the computed CI values, the effects of drug combinations were classified as synergistic (CI < 0.9), additive (0.9 < CI < 1.1) or antagonistic (CI > 1.1).

The subject of another data set is HL60-par cells. Briefly: XTT proliferation / drug combination assay. The class given is cell-based. The note with it: 48 h, read-out: HL60-par IC50. On the procedure: as §1, §2
(Tetrazolium dyes change colour on reduction, which living cells bring about.)

Data set [2] concerns the target T2, ABCB1 (Homo sapiens, UniProt P08183). Description: MDCKII cellular monolayer transport assay. The note with it: 1 µM tepotinib, 4 h, asymmetry aborted by 1 µM LY335979. The class given is in vitro ADME. On the procedure: (§3) This assay was performed as described previously. […] The Transwells were incubated until full confluence for 7 days with media replacement every 2 days. Prior addition of tested drugs, inserts were washed with 1 × PBS on both apical and basal sides. […] Samples were then collected from the acceptor chambers at 0.5, 1, 2 and 4 h intervals. Cellular monolayers’ integrity was verified using fluorescein isothiocyanate-labeled dextran (MW = 40 kDa) accepting leakage up to 5% per hour.

The target of data set [3] is T1, ABCC1. Briefly: MDCKII cellular monolayer transport assay. The note with it: 1 µM tepotinib, 4 h. The class given is in vitro ADME. On the procedure:
as §3

Data set [4] has as its system ABC transporters and CYPs. Description: Gene expression (induction) studies by qRT-PCR. The class given is cell-based, human. The note with it: 1.5 µM tepotinib; DI-related models, NSCLC cell lines and primary NSCLC cultures. On the procedure:
Gene expression studies were performed employing quantitative real-time reverse transcription PCR (qRT-PCR) technique as described in our previous papers.
The Caco-2, LS174T, A549, NCI-H1299 cells or primary lung cancer cells were seeded on 12-well plates with the densities of 50 × 10^4, 100 × 10^4, 24 × 10^4, 18 × 10^4 or 15 × 10^4 cells/well, respectively, and incubated for 24 h. […] Samples were collected at 24 h and 48 h intervals after drug treatment using TRI Reagent and then, mRNA isolation was performed. Agarose gel electrophoresis was used for the control of RNA quality and integrity and the RNA yield was monitored via NanoDrop ND-1000 spectrophotometer (American Laboratory Trading, East Lyme, CT, USA). RNA (1000 ng) was transcribed to cDNA using gb Reverse Transcription Kit. ABCB1, ABCG2 and ABCC1 mRNA expressions were detected with Master Mix and TaqMan-based qRT-PCR systems using QuantStudio 6 (Life Technologies, Carlsbad, CA, USA). […]
In the case of the HepaFH3 hepatocytes, first, viability was analyzed with CellTiter-Glo 2.0 Viability Assay; the luminescence was measured using a microplate reader (FLUOstar Omega, BMG Labtech, Ortenberg, Germany). […] RNA integrity and quality was checked by agarose gel electrophoresis and the concentration assessed by NanoDrop. […]
Background: Quantitative PCR measures a nucleic acid by following its amplification.

For data set [5] the following is noted: recommended dosing of 500 mg daily; read-out: steady state Cmax; cited from earlier work.
The target of data set [6] is T2, ABCB1. The note with it: DI study in healthy subjects; cited from earlier work.

As usually defined, the IC50 is the point on the concentration scale where inhibition reaches its midpoint. What is called Cmax is the maximum level reached in the sampled fluid or tissue.

SMILES strings stand for the structures. Read-outs that look alike come from different tables or passages of the source.

T1 sequence (P33527 whole entry): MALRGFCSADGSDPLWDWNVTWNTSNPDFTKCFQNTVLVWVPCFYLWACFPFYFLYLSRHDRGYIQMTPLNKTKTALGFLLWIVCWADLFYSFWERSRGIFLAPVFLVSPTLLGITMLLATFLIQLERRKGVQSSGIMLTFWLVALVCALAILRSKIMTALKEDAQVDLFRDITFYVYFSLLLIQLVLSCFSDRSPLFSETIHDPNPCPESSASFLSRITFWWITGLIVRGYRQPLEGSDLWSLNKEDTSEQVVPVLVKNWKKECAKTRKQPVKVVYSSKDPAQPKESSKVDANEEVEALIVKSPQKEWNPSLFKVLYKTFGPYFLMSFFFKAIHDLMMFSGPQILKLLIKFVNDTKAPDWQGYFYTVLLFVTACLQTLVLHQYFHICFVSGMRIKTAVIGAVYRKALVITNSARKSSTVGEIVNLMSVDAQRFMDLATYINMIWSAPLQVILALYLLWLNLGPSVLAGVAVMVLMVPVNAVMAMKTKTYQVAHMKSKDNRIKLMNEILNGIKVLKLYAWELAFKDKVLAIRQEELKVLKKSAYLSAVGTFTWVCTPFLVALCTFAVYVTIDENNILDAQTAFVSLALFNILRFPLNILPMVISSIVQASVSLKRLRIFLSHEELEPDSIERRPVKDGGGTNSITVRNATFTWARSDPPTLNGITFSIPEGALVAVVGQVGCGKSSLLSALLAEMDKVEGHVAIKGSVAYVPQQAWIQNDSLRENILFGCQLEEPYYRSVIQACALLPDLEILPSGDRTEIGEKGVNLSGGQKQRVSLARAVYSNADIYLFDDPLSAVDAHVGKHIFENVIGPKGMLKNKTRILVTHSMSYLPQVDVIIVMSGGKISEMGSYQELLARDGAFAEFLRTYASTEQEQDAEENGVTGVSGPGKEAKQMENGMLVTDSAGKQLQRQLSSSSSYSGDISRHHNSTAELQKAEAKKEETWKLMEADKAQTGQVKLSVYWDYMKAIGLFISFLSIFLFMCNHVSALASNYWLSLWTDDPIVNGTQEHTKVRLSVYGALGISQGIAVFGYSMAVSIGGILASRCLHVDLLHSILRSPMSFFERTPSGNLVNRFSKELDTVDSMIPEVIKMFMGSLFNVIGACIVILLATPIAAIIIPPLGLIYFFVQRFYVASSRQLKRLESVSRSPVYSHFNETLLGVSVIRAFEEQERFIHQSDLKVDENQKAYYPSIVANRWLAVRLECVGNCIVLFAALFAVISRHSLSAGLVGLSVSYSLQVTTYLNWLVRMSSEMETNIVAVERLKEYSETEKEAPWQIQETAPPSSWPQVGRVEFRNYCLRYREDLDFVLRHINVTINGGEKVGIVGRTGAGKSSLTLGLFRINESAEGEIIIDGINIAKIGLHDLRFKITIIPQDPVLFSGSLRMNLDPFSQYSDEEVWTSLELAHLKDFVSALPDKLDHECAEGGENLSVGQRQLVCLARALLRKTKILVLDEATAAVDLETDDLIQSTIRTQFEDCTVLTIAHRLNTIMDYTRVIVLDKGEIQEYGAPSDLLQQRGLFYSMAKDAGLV
T2 sequence (P08183 whole entry): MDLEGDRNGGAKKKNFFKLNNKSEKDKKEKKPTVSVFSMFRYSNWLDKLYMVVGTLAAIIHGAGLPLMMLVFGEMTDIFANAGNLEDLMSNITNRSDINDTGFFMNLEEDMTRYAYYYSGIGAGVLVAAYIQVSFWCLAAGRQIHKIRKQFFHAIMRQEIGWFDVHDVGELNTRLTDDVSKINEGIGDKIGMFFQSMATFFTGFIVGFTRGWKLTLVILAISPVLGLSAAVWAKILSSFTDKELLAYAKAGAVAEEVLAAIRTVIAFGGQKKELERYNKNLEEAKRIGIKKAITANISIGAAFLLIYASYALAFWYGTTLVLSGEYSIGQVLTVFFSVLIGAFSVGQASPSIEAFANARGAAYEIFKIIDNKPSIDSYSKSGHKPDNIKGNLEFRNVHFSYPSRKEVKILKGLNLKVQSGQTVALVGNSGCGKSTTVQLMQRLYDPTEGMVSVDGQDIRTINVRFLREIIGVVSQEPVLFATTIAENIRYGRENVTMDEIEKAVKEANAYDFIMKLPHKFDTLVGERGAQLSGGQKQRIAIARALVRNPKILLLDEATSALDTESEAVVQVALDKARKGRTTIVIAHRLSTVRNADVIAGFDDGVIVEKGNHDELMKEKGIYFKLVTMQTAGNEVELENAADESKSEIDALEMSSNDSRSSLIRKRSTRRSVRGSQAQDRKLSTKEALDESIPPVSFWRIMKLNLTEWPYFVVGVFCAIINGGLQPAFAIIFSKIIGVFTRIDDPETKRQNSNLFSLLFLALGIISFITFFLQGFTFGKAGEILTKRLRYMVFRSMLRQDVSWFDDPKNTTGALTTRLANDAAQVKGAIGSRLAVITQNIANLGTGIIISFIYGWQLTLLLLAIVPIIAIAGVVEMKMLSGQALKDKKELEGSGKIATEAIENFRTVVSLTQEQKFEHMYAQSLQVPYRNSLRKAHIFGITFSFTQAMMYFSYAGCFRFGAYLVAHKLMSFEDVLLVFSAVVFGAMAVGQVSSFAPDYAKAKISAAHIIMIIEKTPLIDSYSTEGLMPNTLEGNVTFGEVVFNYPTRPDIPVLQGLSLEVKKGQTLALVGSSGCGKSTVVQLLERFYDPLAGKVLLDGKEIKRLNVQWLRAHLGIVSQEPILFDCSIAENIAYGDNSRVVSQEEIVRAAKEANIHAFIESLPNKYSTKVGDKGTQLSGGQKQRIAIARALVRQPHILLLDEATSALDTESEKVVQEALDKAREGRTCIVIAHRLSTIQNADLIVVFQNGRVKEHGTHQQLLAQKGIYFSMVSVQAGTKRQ

Take `CN1CCC(COc2cnc(-c3cccc(Cn4nc(-c5cccc(C#N)c5)ccc4=O)c3)nc2)CC1` [tepotinib, Tepotinib]: the IC50 is 24.5 µM on ABCC1 [1] (2 µM calcein AM, read-out: IC50, relative calceinAM accumulation); over 50 µM on ABCC1 [1] (2 µM daunorubicin, 1 h, read-out: IC50, relative daunorubicin accumulation); 15.7 µM with A431-par cells; 19.5 µM with HL60-par cells. In addition, the “Substrate affinity for ABCB1 (transport asymmetry)” value at ABCB1 [2] is given as “ABCB1 substrate”. For the same compound, at ABCC1 [3], the “Substrate affinity for ABCC1” value was “No substrate affinities”. Also, the “Effect on expression of clinically relevant ABC transporters and CYPs” value in data set [4] is given as “did not influence expression”. For the same compound, the Cmax in data set [5] is 2620 nM. The “Effect on AUC and Cmax of ABCB1 substrate dabigatran etexilate” value on ABCB1 [6] is “significantly increased AUC and Cmax”.
